Test: storage stability / shelf life of sinoporphyrin sodium prepared by the method
Assay type: physicochemical
Details: sinoporphyrin sodium prepared by the disclosed method; storage conditions not given

C=Cc1c(C)c2cc3nc(cc4nc(cc5[nH]c(cc1[nH]2)c(C)c5C(C)OC(C)c1c(C)c2cc5[nH]c(cc6nc(cc7nc(cc1[nH]2)C(C)=C7CCC(=O)[O-])C(CCC(=O)[O-])=C6C)c(C)c5C=C)C(C)=C4CCC(=O)[O-])C(CCC(=O)[O-])=C3C.[Na+].[Na+].[Na+].[Na+] (centres unmarked) [sinoporphyrin sodium, bis[1-[6,7-dipropionatesodium salt-1,3,5,8-tetramethyl-2-vinyl-4-porphyrin]ethyl] ether]
purity with the extension of storage time (storage stability): does not decrease significantly | shelf life: more than 24 months

From patent publication US20260274869A1, “PREPARATION METHODS OF ETHER-BONDED PORPHYRIN DIMER ESTER AND SINOPORPHYRIN SODIUM, PHARMACEUTICAL COMPOSITIONS CONTAINING THEM AND THEIR USES” (SHANGHAI GUANGSHENG BIOPHARMACEUTICAL CO., LTD, priority 2024, published 2026)
